Legend:
bromegrass, downy = assay: Test C postemergence; assay type: in vivo, Bromus tectorum; conditions: for Bromegrass, Downy plant response rating: scale 0 to 100
From the text: (§1) Seeds of plant species selected from blackgrass (Alopecurus myosuroides), ryegrass, Italian (Italian ryegrass, Lolium multiflorum), wheat (winter wheat, Triticum aestivum), galium (catchweed bedstraw, Galium aparine), corn (Zea mays), crabgrass, large (large crabgrass, Digitaria sanguinalis), foxtail, giant (giant foxtail, Setaria faberii), johnsongrass (Sorghum halepense), lambsquarters (Chenopodium album), morningglory (Ipomoea coccinea), nutsedge, yellow (yellow nutsedge, Cyperus esculentus), pigweed (redroot pigweed, Amaranthus retroflexus), ragweed (common ragweed, Ambrosia elation), soybean (Glycine max), barnyardgrass (Echinochloa crus-galli), oilseed rape (Brassica napus), waterhemp (common waterhemp, Amaranthus rudis), oat, wild (wild oat, Avena fatua), kochia (Kochia scoparia), Surinam grass (Brachiaria decumbens), foxtail, green (green foxtail, Setaria viridis), goosegrass (Eleusine indica), bromegrass, downy (downy bromegrass, Bromus tectorum), nightshade (eastern black nightshade, Solanum ptycanthum), cocklebur (common cocklebur, Xanthium strumarium), cupgrass, woolly (woolly cupgrass, Eriochloa villosa), bermudagrass (Cynodon dactylon), sunflower, (common oilseed sunflower, Helianthus annuus), Russian thistle (Salsola kali), and velvetleaf (Abutilon theophrasti) were planted into a blend of loam soil and sand and treated preemergence with test chemicals formulated in a non-phytotoxic solvent mixture which included a surfactant.
(§2) At the same time, plants selected from these crop and weed species and also chickweed (common chickweed, Stellaria media), canarygrass (littleseed canarygrass, Phalaris minor), and deadnettle (henbit deadnettle, Lamium amplexicaule), were planted in pots containing Redi-Earth® planting medium (Scotts Company, 14111 Scottslawn Road, Marysville, Ohio 43041) comprising spaghnum peat moss, vermiculite, wetting agent and starter nutrients and treated with postemergence applications of test chemicals formulated in the same manner. Plants ranged in height from 2 to 18 cm (1- to 4-leaf stage) for postemergence treatments. Treated plants and controls were maintained in a greenhouse for 13 to 15 days, after which time all species were compared to controls and visually evaluated. Plant response ratings, summarized in Table C, are based on a scale of 0 to 100 where 0 is no effect and 100 is complete control. A dash (-) response means no test result.

bermudagrass = assay: Test C postemergence; assay type: in vivo, Cynodon dactylon; conditions: for Bermudagrass plant response rating: scale 0 to 100
From the text: as §1, §2

goosegrass = assay: Test C preemergence; assay type: in vivo, Eleusine indica
From the text: as §1, §2

oat, wild = assay: Test C preemergence; assay type: in vivo, Avena fatua
From the text: as §1, §2

cupgrass, woolly = assay: Test C preemergence; assay type: in vivo, Eriochloa villosa; conditions: for Cupgrass, Woolly plant response rating: preemergence
From the text: as §1, §2

[1] = postemergence, 250 g ai/ha, scale 0 to 100 (0 no effect, 100 complete control)
[2] = postemergence, 125 g ai/ha, scale 0 to 100, 0 no effect, 100 complete control
[3] = preemergence, 31 g ai/ha, scale 0 to 100 (0 no effect, 100 complete control), 13 to 15 days
[4] = preemergence, 62 g ai/ha, 13 to 15 days, scale 0 to 100, 0 = no effect, 100 = complete control
[5] = preemergence, 125 g ai/ha, scale 0 to 100, 0 is no effect, 100 is complete control

Cc1cc(C(=O)NCC(F)(F)F)nn1Cc1ccnc(C(F)(F)F)c1 [Compound 74]
Bromegrass, Downy plant response rating (bromegrass, downy; Postemergence, 31 g ai/ha): 0
Bromegrass, Downy plant response rating (bromegrass, downy; postemergence, 62 g ai/ha): 0
Plant response rating, Bromegrass, Downy (bromegrass, downy; [1]): 0
Plant response rating, Bromegrass, Downy (bromegrass, downy; [2]): 0
Bermudagrass plant response rating (bermudagrass; Postemergence, 31 g ai/ha): 5
Bermudagrass plant response rating (bermudagrass; postemergence, 62 g ai/ha): 5
Plant response rating, Bermudagrass (bermudagrass; [1]): 5
Plant response rating, Bermudagrass (bermudagrass; [2]): 5
Plant response rating (scale of 0 to 100), Goosegrass (goosegrass; Preemergence, 250 g ai/ha): 100
Goosegrass plant response rating (goosegrass; [3]): 75
Plant response rating, Goosegrass (goosegrass; [4]): 85
Goosegrass plant response rating (goosegrass; [5]): 100
Plant response rating (scale of 0 to 100), Oat, Wild (oat, wild; Preemergence, 250 g ai/ha): 95
Oat, Wild plant response rating (oat, wild; [3]): 0
Plant response rating, Oat, Wild (oat, wild; [4]): 40
Oat, Wild plant response rating (oat, wild; [5]): 85
Plant response rating (scale of 0 to 100), Cupgrass, Woolly (cupgrass, woolly; Preemergence, 250 g ai/ha): 98
Cupgrass, Woolly plant response rating (cupgrass, woolly; 31 g ai/ha, scale 0 to 100 (0 no effect, 100 complete control), 13 to 15 days): 65
Cupgrass, Woolly plant response rating (cupgrass, woolly; 125 g ai/ha, scale 0 to 100, 0 is no effect, 100 is complete control): 98
